Assay results as given in patent publication US8785457B2 (Cellzome Limited, priority 2009, dated 2014).

Experiments:
[1] = test system: S6RP serine-240/244 phosphorylation; assay: In vitro Phospho-S6 cellular assay (pS6RP S240/244) in HEK293T/17 cells; type: cell-based; conditions: Homo sapiens, 2 hours, read-out: pS6 IC50
Description: Activation of mTOR signaling results in phosphorylation of several downstream targets. In cells, mTOR exists in two different protein complexes. The mTOR Complex-1 (mTORC1) phosphorylates and activates S6 Kinase 1 (S6K1) and S6 Kinase 2 (S6K2) (also known as p70S6K) which then phosphorylate S6 Ribosomal Protein (S6RP) (also known as RPS6)3. S6RP is phosphorylated on serine 235, serine 236, serine 240 and serine 244 by both pS6K1 and pS6K2. The mTOR Complex-2 (mTORC2) phosphorylates AKT on serine 473 which activates the AKT signaling pathway.
The assay measures a test compound's inhibition of S6RP serine-240/244 phosphorylation and inhibition of Akt serine-473 phosphorylation in human embryonic kidney derived HEK293T/17 cells (ATCC CRL-11268).
The HEK293T/17 cell line is maintained in DMEM media (Invitrogen catalogue number 41965-039) supplemented with 10% FCS at 37° C. in a 5% CO2 humidified incubator.
Cells are seeded in 96-well plates at 40,000 cells/well (pS6RP S240/244 assay) or 80,000 cells/well (pAkt S473 assay) in 90 μl growth media (DMEM, 2% FCS). Plates are incubated for 1 hour in a humidified incubator to allow the cells to adhere. Cells are treated with 8 concentrations of test compounds or DMSO alone for controls (final DMSO concentration 0.1%) and incubated at 37° C. for 2 hours. Then 20 μl of 5× concentrated lysis buffer (750 mM NaCl, 100 mM Tris pH7.4, 5 mM ADTA, 5 mM EGTA, 5% Triton X-100) is added, plates are sealed and incubated for 15 minutes at 4° C. with gentle shaking. After cell lysis, 25 μl cell lysate is transferred to a MesoScale plate coated with an antibody to pS6RP Ser240/244 (MesoScale Discovery K150DGD-3) or an antibody to pAkt Ser 473 (MesoScale Discovery K151DGD-3). Plates have been blocked before by incubation with 150 μl MesoScale Discovery Blocking Solution-A for 1 hour at room temperature followed by washing with 150 μl 1× Tris wash buffer per well. After the transfer of the cell lysate to the MSD plate, the pS6RP (or pAkt) protein is captured on the coated antibody by incubation at room temperature for 1 hour with gentle shaking. After the capture step the plate is washed three times with 150 μl of 1× Tris wash buffer per well. Then 25 μl detection antibody conjugated with a Sulfo-Tag is added and incubated for 1 hour at room temperature with gentle shaking. Subsequently the antibody solution is removed and the plate is washed 3 times with 150 μl×Tris wash buffer per well and 150 μl Read buffer is added. The plates are analysed on a MSD 2400 Plate Reader (MesoScale Discovery). Data analysis is performed using nonlinear regression for a sigmoidal dose-response with a variable slope.

PI3Kalpha (PI3Ka) = target: T1, PI3Kalpha (PI3Ka) (Homo sapiens, UniProt P42336); assay: kinobeads assay, PI3Kalpha; type: binding; conditions: kinobeads assay, Table 6
T1 construct: endogenous in cells; host or cells: cell lysate
T1 sequence (P42336 whole entry): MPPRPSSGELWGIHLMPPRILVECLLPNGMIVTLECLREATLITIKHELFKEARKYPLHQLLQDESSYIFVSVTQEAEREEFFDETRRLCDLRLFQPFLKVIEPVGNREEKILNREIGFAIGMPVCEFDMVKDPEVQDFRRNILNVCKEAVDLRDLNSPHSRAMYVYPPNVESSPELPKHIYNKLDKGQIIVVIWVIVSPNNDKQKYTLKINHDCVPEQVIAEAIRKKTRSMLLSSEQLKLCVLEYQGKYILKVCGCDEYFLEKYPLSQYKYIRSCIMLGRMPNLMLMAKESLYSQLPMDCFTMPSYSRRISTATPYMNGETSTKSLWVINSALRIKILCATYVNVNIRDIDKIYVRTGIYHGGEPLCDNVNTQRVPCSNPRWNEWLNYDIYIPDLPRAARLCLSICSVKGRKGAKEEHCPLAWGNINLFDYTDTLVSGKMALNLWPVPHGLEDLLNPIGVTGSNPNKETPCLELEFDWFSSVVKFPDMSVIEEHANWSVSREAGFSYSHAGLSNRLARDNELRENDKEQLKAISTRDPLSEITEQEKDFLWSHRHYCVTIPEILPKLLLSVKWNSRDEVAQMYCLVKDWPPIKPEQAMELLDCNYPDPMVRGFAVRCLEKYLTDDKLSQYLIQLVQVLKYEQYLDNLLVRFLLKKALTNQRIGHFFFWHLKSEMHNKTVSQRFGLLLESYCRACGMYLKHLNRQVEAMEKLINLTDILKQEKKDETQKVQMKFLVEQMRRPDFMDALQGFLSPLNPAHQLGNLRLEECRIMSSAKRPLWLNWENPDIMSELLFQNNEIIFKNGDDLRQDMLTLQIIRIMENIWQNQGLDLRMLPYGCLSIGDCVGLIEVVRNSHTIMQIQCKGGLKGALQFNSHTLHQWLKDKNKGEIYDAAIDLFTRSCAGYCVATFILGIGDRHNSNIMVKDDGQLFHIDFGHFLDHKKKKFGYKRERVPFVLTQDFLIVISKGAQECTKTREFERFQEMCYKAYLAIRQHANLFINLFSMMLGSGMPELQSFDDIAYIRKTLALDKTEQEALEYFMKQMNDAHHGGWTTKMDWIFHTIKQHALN
T1 sequence (P27986 whole entry partner): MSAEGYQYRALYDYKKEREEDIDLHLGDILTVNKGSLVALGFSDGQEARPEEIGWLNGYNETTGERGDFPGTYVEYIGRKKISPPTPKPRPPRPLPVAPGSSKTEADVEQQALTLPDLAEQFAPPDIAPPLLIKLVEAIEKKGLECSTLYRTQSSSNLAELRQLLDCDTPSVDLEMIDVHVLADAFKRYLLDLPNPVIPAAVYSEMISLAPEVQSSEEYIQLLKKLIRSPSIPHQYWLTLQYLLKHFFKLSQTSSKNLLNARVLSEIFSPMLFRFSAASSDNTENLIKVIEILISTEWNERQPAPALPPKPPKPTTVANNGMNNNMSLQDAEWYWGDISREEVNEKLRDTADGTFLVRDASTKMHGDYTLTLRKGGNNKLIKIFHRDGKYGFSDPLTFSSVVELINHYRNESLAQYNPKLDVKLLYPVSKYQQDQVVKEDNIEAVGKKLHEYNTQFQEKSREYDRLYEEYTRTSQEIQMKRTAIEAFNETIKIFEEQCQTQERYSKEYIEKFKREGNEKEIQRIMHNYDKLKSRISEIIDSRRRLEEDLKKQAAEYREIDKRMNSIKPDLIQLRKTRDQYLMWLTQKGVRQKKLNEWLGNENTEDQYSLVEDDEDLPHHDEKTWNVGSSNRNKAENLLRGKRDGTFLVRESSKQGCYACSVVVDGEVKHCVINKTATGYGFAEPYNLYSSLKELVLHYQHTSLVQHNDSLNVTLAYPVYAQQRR
Method in brief: (§1)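 IC50 values derive from per-kinase dose-response curves in a lysate-based competition binding format. Kinases retained on phenylmorpholin-chromen beads in the presence of compound were eluted and detected by multiplexed immunodetection.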

PI3 Kbeta (PI3 Kb) = target: T2, PI3 Kbeta (PI3 Kb) (Homo sapiens, UniProt P42338); assay: kinobeads assay, PI3Kbeta; type: binding; conditions: kinobeads assay, Table 6; read-out: Inhibition values (IC50) PI3Kb
T2 construct: endogenous in cells; host or cells: cell lysate
T2 sequence (P42338 whole entry): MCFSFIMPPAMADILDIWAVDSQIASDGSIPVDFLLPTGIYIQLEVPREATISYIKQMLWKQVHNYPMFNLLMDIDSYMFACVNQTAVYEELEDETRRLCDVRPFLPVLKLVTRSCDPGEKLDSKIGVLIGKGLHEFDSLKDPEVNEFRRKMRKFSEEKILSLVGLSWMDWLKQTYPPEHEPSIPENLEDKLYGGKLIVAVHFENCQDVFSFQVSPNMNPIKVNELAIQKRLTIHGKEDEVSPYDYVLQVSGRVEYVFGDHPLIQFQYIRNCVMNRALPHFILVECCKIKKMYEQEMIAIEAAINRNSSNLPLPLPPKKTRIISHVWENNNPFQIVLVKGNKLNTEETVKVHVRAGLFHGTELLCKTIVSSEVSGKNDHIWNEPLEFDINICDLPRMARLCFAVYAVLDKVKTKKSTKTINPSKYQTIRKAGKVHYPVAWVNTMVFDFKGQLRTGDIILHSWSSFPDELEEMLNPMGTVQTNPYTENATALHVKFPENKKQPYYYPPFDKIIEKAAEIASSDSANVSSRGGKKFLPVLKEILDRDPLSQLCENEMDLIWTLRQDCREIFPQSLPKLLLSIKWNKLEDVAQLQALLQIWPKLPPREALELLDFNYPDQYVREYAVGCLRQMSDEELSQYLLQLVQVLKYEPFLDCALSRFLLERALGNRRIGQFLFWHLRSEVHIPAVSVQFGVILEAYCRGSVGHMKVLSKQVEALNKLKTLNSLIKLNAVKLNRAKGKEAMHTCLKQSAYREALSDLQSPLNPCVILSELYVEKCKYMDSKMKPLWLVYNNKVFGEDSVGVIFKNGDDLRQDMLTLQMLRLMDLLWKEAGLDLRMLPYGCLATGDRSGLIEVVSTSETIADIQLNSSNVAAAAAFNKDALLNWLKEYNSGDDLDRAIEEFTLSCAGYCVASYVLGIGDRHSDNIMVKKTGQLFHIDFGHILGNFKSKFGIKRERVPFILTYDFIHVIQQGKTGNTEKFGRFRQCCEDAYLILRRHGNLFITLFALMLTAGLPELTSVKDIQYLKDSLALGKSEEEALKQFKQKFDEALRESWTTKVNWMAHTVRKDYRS
T2 sequence (P27986 whole entry partner): as the sequence (P27986 whole entry partner) above
Method in brief: as §1

Row | Compound | IC50 [1] | Inhibition values (IC50) PI3Ka (PI3Kalpha (PI3Ka)) | IC50 (PI3 Kbeta (PI3 Kb))
1 | CCNC(=O)Nc1ccc(-c2nc3c(c(N4CCOC[C@@H]4C)n2)CN(C=O)C3)cc1 [Example 8, (S)-1-ethyl-3-(4-(6-formyl-4-(3-methylmorpholino)-6,7-dihydro-5H-pyrrolo[3,4-d]pyrimidin-2-yl)phenyl)urea] | 289 nM | – | –
2 | C[C@H]1COCCN1c1nc(-c2ccc(NC(=O)NC3CC3)cc2)nc2c1CNCC2 [Example 11, (S)-1-cyclopropyl-3-(4-(4-(3-methylmorpholino)-5,6,7,8-tetrahydropyrido[4,3-d]pyrimidin-2-yl)phenyl)urea] | 588 nM | – | –
3 | CCNC(=O)Nc1ccc(-c2nc3c(c(N4CCOC[C@@H]4C)n2)CNCC3)cc1 [Example 12, (S)-1-ethyl-3-(4-(4-(3-methylmorpholino)-5,6,7,8-tetrahydropyrido[4,3-d]pyrimidin-2-yl)phenyl)urea] | 839 nM | – | –
4 | CCNC(=O)Nc1ccc(-c2nc3c(c(N4CCOC[C@@H]4C)n2)CCNC3)cc1 [Example 13, (S)-1-ethyl-3-(4-(4-(3-methylmorpholino)-5,6,7,8-tetrahydropyrido[3,4-d]pyrimidin-2yl)phenyl)urea] | 240 nM | – | –
5 | C[C@H]1COCCN1c1nc(-c2ccc(NC(=O)NC3CC3)cc2)nc2c1CCNC2 [Example 15, (S)-1-cyclopropyl-3-(4-(4-(3-methylmorpholino)-5,6,7,8-tetrahydropyrido[3,4-d]pyrimidin-2-yl)phenyl)urea] | 238 nM | – | –
6 | CNC(=O)Nc1ccc(-c2nc3c(c(N4CCOC[C@@H]4C)n2)CCNC3)cc1 [Example 16, (S)-1-methyl-3-(4-(4-(3-methylmorpholino)-5,6,7,8-tetrahydropyrido[3,4-d]pyrimidin-2-yl)phenyl)urea] | 297 nM | – | –
7 | CCNC(=O)Nc1ccc(-c2nc3c(c(N4CCOC[C@@H]4C)n2)CN(C(C)=O)C3)cc1 [Example 18, (S)-1-(4-(6-acetyl-4-(3-methylmorpholino)-6,7-dihydro-5H-pyrrolo[3,4-d]pyrimidin-2-yl)phenyl)-3-ethylurea] | 443 nM | – | –
8 | CC(=O)N1Cc2nc(-c3ccc(NC(=O)NC4CC4)cc3)nc(N3CCOC[C@@H]3C)c2C1 [Example 20, (S)-1-(4-(6-acetyl-4-(3-methylmorpholino)-6,7-dihydro-5H-pyrrolo[3,4-d]pyrimidin-2-yl)phenyl)-3-cyclopropylurea] | 330 nM | – | –
9 | CCNC(=O)Nc1ccc(-c2nc3c(c(N4CCOC[C@@H]4C)n2)CN(C)C3)cc1 [Example 26, (S)-1-ethyl-3-(4-(6-methyl-4-(3-methylmorpholino)-6,7-dihydro-5H-pyrrolo[3,4-d]pyrimidin-2-yl)phenyl)urea] | 196 nM | – | –
10 | CCNC(=O)Nc1ccc(-c2nc3c(c(N4CCOC[C@@H]4C)n2)CN(S(C)(=O)=O)C3)cc1 [Example 32, (S)-1-ethyl-3-(4-(4-(3-methylmorpholino)-6-(methylsulfonyl)-6,7-dihydro-5H-pyrrolo[3,4-d]pyrimidin-2-yl)phenyl)urea] | 182 nM | – | –
11 | CCNC(=O)N1Cc2nc(-c3ccc(NC(=O)NC4CC4)cc3)nc(N3CCOC[C@@H]3C)c2C1 [Example 33, (S)-2-(4-(3-cyclopropylureido)phenyl)-N-ethyl-4-(3-methylmorpholino)-5H-pyrrolo[3,4-d]pyrimidine-6(7H)-carboxamide] | 379 nM | – | –
12 | C[C@H]1COCCN1c1nc(-c2ccc(NC(=O)NC3CC3)cc2)nc2c1CN(C)C2 [Example 38, (S)-1-cyclopropyl-3-(4-(6-methyl-4-(3-methylmorpholino)-6,7-dihydro-5H-pyrrolo[3,4-d]pyrimidin-2-yl)phenyl)urea] | 170 nM | – | –
13 | CC(C)C(=O)N1Cc2nc(-c3ccc(NC(=O)NC4CC4)cc3)nc(N3CCOC[C@@H]3C)c2C1 [Example 44, (S)-1-cyclopropyl-3-(4-(6-isobutyryl-4-(3-methylmorpholino)-6,7-dihydro-5H-pyrrolo[3,4-d]pyrimidin-2-yl)phenyl)urea] | 205 nM | – | –
14 | CNC(=O)Nc1ccc(-c2nc3c(c(N4CCOC[C@@H]4C)n2)CN(CC2CC2)C3)cc1 [Example 47, (S)-1-(4-(6-(cyclopropylmethyl)-4-(3-methylmorpholino)-6,7-dihydro-5H-pyrrolo[3,4-d]pyrimidin-2-yl)phenyl)-3-methylurea] | 218 nM | – | –
15 | C[C@H]1COCCN1c1nc(-c2ccc(NC(N)=O)cc2)nc2c1CN(CC1CC1)C2 [Example 48, (S)-1-(4-(6-(cyclopropylmethyl)-4-(3-methylmorpholino)-6,7-dihydro-5H-pyrrolo[3,4-d]pyrimidin-2-yl)phenyl)urea] | 698 nM | – | –
16 | CCCNC(=O)Nc1ccc(-c2nc3c(c(N4CCOC[C@@H]4C)n2)CN(CC2CC2)C3)cc1 [Example 49, (S)-1-(4-(6-(cyclopropylmethyl)-4-(3-methylmorpholino)-6,7-dihydro-5H-pyrrolo[3,4-d]pyrimidin-2-yl)phenyl)-3-propylurea] | 306 nM | – | –
17 | CC(C)NC(=O)Nc1ccc(-c2nc3c(c(N4CCOC[C@@H]4C)n2)CN(CC2CC2)C3)cc1 [Example 50, (S)-1-(4-(6-(cyclopropylmethyl)-4-(3-methylmorpholino)-6,7-dihydro-5H-pyrrolo[3,4-d]pyrimidin-2-yl)phenyl)-3-isopropylurea] | 423 nM | – | –
18 | C[C@H]1COCCN1c1nc(-c2ccc(NC(=O)NC3CCC3)cc2)nc2c1CN(C)C2 [Example 55, (S)-1-cyclobutyl-3-(4-(6-methyl-4-(3-methylmorpholino)-6,7-dihydro-5H-pyrrolo[3,4-d]pyrimidin-2-yl)phenyl)urea] | 435 nM | – | –

Next, values leading:

Row | IC50 [1] | Inhibition values (IC50) PI3Ka (PI3Kalpha (PI3Ka)) | IC50 (PI3 Kbeta (PI3 Kb)) | Compound
19 | 142 nM | – | – | C[C@H]1COCCN1c1nc(-c2ccc(NC(=O)NC3CC3)cc2)nc2c1CN(C(=O)C1CC1)C2 [Example 17, (S)-1-(4-(6-(cyclopropanecarbonyl)-4-(3-methylmorpholino)-6,7-dihydro-5H-pyrrolo[3,4-d]pyrimidin-2-yl)phenyl)-3-cyclopropylurea]
20 | 135 nM | D (D >10 μM) | > 10000 nM | CCNC(=O)Nc1ccc(-c2nc3c(c(N4CCOC[C@@H]4C)n2)CN(C(=O)c2ccc(F)cc2)C3)cc1 [Example 19, (S)-1-ethyl-3-(4-(6-(4-fluorobenzoyl)-4-(3-methylmorpholino)-6,7-dihydro-5H-pyrrolo[3,4-d]pyrimidin-2-yl)phenyl)urea]
21 | 87 nM | – | – | CCNC(=O)Nc1ccc(-c2nc3c(c(N4CCOC[C@@H]4C)n2)CN(C(=O)C(C)(C)C)C3)cc1 [Example 22, (S)-1-ethyl-3-(4-(4-(3-methylmorpholino)-6-pivaloyl-6,7-dihydro-5H-pyrrolo[3,4-d]pyrimidin-2-yl)phenyl)urea]
22 | 170 nM | – | – | C[C@H]1COCCN1c1nc(-c2ccc(NC(=O)NC3CC3)cc2)nc2c1CN(CC1CC1)C2 [Example 30]
23 | 113 nM | – | – | CCN1Cc2nc(-c3ccc(NC(=O)NC4CC4)cc3)nc(N3CCOC[C@@H]3C)c2C1 [Example 36, (S)-1-cyclopropyl-3-(4-(6-ethyl-4-(3-methylmorpholino)-6,7-dihydro-5H-pyrrolo[3,4-d]pyrimidin-2-yl)phenyl)urea]
24 | 140 nM | – | – | CCNC(=O)Nc1ccc(-c2nc3c(c(N4CCOC[C@@H]4C)n2)CN(CC)C3)cc1 [Example 39, (S)-1-ethyl-3-(4-(6-ethyl-4-(3-methylmorpholino)-6,7-dihydro-5H-pyrrolo[3,4-d]pyrimidin-2-yl)phenyl)urea]
25 | 147 nM | – | – | CC(C)N1Cc2nc(-c3ccc(NC(=O)NC4CC4)cc3)nc(N3CCOC[C@@H]3C)c2C1 [Example 46, (S)-1-cyclopropyl-3-(4-(6-isopropyl-4-(3-methylmorpholino)-6,7-dihydro-5H-pyrrolo[3,4-d]pyrimidin-2-yl)phenyl)urea]
26 | 143 nM | – | – | COC(=O)N1Cc2nc(-c3ccc(NC(=O)NCCF)cc3F)nc(N3CCOCC3)c2C1 [Example 169, Methyl 2-(2-fluoro-4-(3-(2-fluoroethyl)ureido)phenyl)-4-morpholino-5H-pyrrolo[3,4-d]pyrimidine-6(7H)-carboxylate]
